Laboratory results taken from patent publication US20110195910A1, “USE OF TOCOTRIENOL COMPOSITION FOR THE PREVENTION OF CANCER” (DAVOS LIFE SCIENCE PTE. LTD., priority 2008, published 2011).

Experiments:
[1] = tested on: PCa tumors (PC-3-Luc xenograft); assay: Immunohistochemistry of xenograft tumor tissues; set-up: species or system BALB/c athymic nude mice; conditions: mouse, in vivo
Experimental: 4.1.9 Immunohistochemistry—Tumor, liver, kidney, spleen, lung and heart of mice were fixed in 10% neutral buffered formalin for 12 h. After fixation, the tissue samples were processed into paraffin blocks. Tissue sections were cut at a thickness of 5 using Kedee microtome (China JINHUA Kedi Co., Ltd, Zhejiang, China), then deparaffinized in toluene and rehydrated from graded of alcohols to distilled water. Endogenous peroxidase activity was blocked by treating the sections with 0.6% hydrogen peroxide in methanol for 20 min, followed by antigen retrieval treatment. (Dako, Glostrup, Denmark). The sections were then incubated with peroxidase blocking solution (Dako, Glostrup, Denmark) for 1 h at 37° C. to remove any nonspecific antigens. The specimens were incubated overnight at 4° C. with primary rabbit polyclonal antibody against Snail (1:200), Id1 (1:250) (Abcam, Cambridge, UK), cleaved caspase-3 and cleaved PARP (1:50; Cell Signalling Technology, Inc., Beverly, Mass., USA) and mouse monoclonal antibody against proliferating cell nuclear antigen (PCNA), Ki-67, E-cadherin (1:50; Santa Cruz Biotechnology, Santa Cruz, Calif., USA). After several rinse in TBS, the sections were incubated with Dako REALT EnVisionT/HRP, Rabbit/Mouse solution for 1 h at 37° C. The reaction was visualized by Dako REALT DAB^+ chromogen. Mayer's haematoxylin (Dako, Glostrup, Denmark) was used as counter stain. Standard inverted light microscopy (Nikon, Tokyo, Japan) was used to analyze the slides.

PC-3-luc cells = assay: Orthotopic PC-3 xenograft model (tumorigenicity of pre-treated cells); assay type: in vivo, CB-17 SCID mice; conditions: cells pre-treated with 5 μg/ml for 24 hrs; two weeks after implantation
Experimental: 5.1.9 Orthotopic PC-3 xenograft model—The orthotopic model was established with procedures known in the art. Briefly, 8-week-old CB-17 SCID mice were anesthetized and placed under a dissecting microscope (Olympus, Tokyo, Japan). An incision at the midline of abdomen was made and the dorsal prostate was exposed at the base of the bladder. Equal amount of viable PC3-luc cells (2.6×10^4 cells resuspended in 5 μl of serum free RPMI) with or without prior γ-T3 treatment for 24 hrs were injected into the dorsal prostates of the mice. Organs were replaced and the abdomen was closed. To detect the bioluminescent signal of the cells, mice were anesthetized and then injected with 80 mg/kg of D-luciferin solution by i.p. (Xenogen Corporation, Cranbury, N.J.). Signal was captured by Xenogen IVIS 100 series imaging system. Tumors progression was monitored by measuring the bioluminescent signal (units of photons per second per unit area) every 2 weeks until 6-week post tumor implantation. Mice were sacrificed by cervical dislocation and tumors were collected and fixed in 10% formalin. All surgical and animal handling procedures were carried out according to the guidelines of the Committee on the Use of Live Animals in Teaching and Research (CULATR), The University of Hong Kong.

G361 cells = assay: Matrigel-invasion assay, G361 cells; assay type: cell-based; conditions: γ-T3 at IC50 and IC85
Experimental: 1.1.4 Matrigel-invasion assay—Matrigel-invasion assay was performed according to a previously published method with modifications. Briefly, cells were pre-incubated in a serum-free RPMI 1640 medium with or without γ-T3 isomers for 24 hrs. Cells (2.5×10^5) resuspended in 500 μl of serum-free RPMI 1640 containing 0.1% bovine serum albumin (BSA) were then added to the upper chamber of a 8 μm pore size insert (Millipore, Bedford, Mass.) manually coated with Matrigel (0.5 mg/ml) (BD Bioscience, Bedford, Mass.). Five hundred μl of invasion buffer containing fibronectin (10 μg/ml) and RPMI 1640 supplemented with 10% FCS were added in the lower chamber as a chemo-attractant. Cells were incubated at 37° C. for 24 hrs in 5% CO2 humidified conditions. At the end of incubation period, inserts were stained with Diff-Quick staining solution (Fischer Scientific). Non-invaded cells on the inside of the insert were scraped off with a cotton swab. Cell invasions were then examined by a phase-contrast microscope. The invaded cells were extracted using extraction buffer (Millipore, Bedford, Mass.) and the cell number was estimated based on absorbance at 595 nm.

[2] = Single acute toxicity test (MTD); assay type: in vivo, C57BL/6 black mice; conditions: single dose i.p., 30-day observation
Experimental: 4.1.5 Single Acute Toxicity Test—The maximum tolerated dose (MTD) was determined by increasing doses on different groups of mice until the highest dose without any mortality is found. Briefly, ninety C57BU6 black mice (ten for each group) received single dose i.p injection containing 1, 2, 4, 8, 12, 16, 20, 30 and 40 mg of γ-T3 in 100 μl injection volume.

[3] = tested on: bladder cancer cell line MGH-U1; assay: Spheroid formation assay, MGH-U1 cells; assay type: cell-based
Experimental: 5.1.7 Spheroid formation assay—Spheroid formation assay was performed with a protocol modified from previous study (Folkins C, p3560). Briefly, cells were first trypsinized, washed with 1× PBS and resuspended in DMEM F12 medium. Two hundred cells were added into each well of a 24-well-plate pre-coated with polyHEMA (Sigma, St. Louis, Mo.). Cells will be grown in DMEM/F12 mem (Invitrogen, Carlsbad, Calif.) supplemented with 4 μg/mL insulin (Sigma, St. Louis, Mo.), B27 (Invitrogen, Carlsbad, Calif.), 20 ng/mL EGF (Sigma, St. Louis, Mo.), and 20 ng/mL basic FGF (Invitrogen, Carlsbad, Calif.). Fresh medium with the above supplements was added every day. γ-T3 was added at indicated time points and the number of spheroids was counted at day 14 of the assay or at the end of the treatment. Each experiment was repeated in triplicates and each data point represented the mean and standard derivation.

In the case of `CC(C)=CCC/C(C)=C/CC/C(C)=C/CCC1(C)CCc2cc(O)c(C)c(C)c2O1` (centres unmarked) [γ-T3, 7,8-dimethyltocotrienol], the “E-cadherin expression in tumor sections” value [1] is reported as “up-regulated”, the “Snail expression in tumor sections” value [1] is reported as “down-regulated” and the “level of PCNA, Ki67 and Id-1 in tumors” value [1] is reported as “downregulated”. The “level of cleaved caspase 3 and PARP in tumors” value [1] was “induced”, the “mice that failed to develop visible tumor” value (PC-3-luc cells) was 5 out of 7 and the “invasion capability compared to untreated control” value (G361 cells) was 2 -time lower. The “maximum tolerated dose (MTD)” value [2] was 12 mg and the “inhibition in spheroid formation” value [3] was 100%.
